# US20240207258A1, “HETEROCYCLIC PDK1 INHIBITORS FOR USE TO TREAT CANCER” (Viracta Therapeutics, Inc., priority 2015, published 2024)
# Assays:
# pPDK1 = assay: Western blot, PDK1 phosphorylation in KG-1 cells; format: cell-based; conditions: Homo sapiens; KG-1, 100 nM; read-out: inhibition of pPDK1 levels
# Protocol: (§1) For phosphoprotein analyses, cells were seeded into 10 cm petri dishes (10×10^6 cells/dish) in media supplemented with 10% FBS and penicillin/streptomycin. After cells recovered for 1 hr at 37° C., compounds were added in DMSO (0.1% final) and incubated for 4 or 24 hr at 37° C. Cells were then harvested by centrifugation and washed with cold PBS. Cell pellets were resuspended in cell extraction buffer (Invitrogen) supplemented with 2×Halt™ protease and phosphatase inhibitor cocktail (Thermo Scientific), 2 mM sodium orthovanadate, 10 mM EDTA and 4 mM PMSF. Samples were lysed by sonication and incubated on ice for 30 min. Cell debris was removed by centrifugation and protein concentrations were determined using the BCA Protein Assay Kit (Pierce). The clarified lysate was diluted in LDS sample buffer with reducing agent (Life Technologies). After heating to 70° C. samples were cooled and loaded onto 4-12% Bis-Tris gels (Life Technologies) at 50 μg/well. Gels were run at 110 V and proteins were transferred to a PVDF membrane. Membranes were blocked in TBS blocking buffer (Li-Cor Biosciences) for 1 hr. Primary antibodies (Cell Signaling, Sant Cruz Biotechnology) were added (1:1,000 dilution) in blocking buffer with 0.1% Tween-20 and 1:20,000 dilution of β-actin antibody and incubated for 14 hr at 4° C. […] Bands were quantitated using ImageJ.
# pRSK2 = assay: Western blot, RSK2 phosphorylation in KG-1 cells; format: cell-based; conditions: Homo sapiens; KG-1, 100 nM; read-out: inhibition of pRSK2 levels
# Protocol: as §1
# [1] = tested on: PDK1 and RSK2 phosphorylation; assay: Western blot pathway modulation, summary over cell lines; format: cell-based
# Protocol: as §1, with “After heating to 70° C. samples were cooled and loaded onto 4-12% Bis-Tris gels (Life Technologies) at 50 μg/well.” left out
# P-RSK2 [2] = assay: Western blot, RSK2 phosphorylation in MV4-11 cells; format: cell-based, human
# Protocol: (§2) For phosphoprotein analyses, cells were seeded into 10 cm petri dishes (10×10^6 cells/dish) in media supplemented with 10% FBS and penicillin/streptomycin. After cells recovered for 1 hr at 37° C., compounds were added in DMSO (0.1% final) and incubated for 4 or 24 hr at 37° C. Cells were then harvested by centrifugation and washed with cold PBS. Cell pellets were resuspended in cell extraction buffer (Invitrogen) supplemented with 2×Halt™ protease and phosphatase inhibitor cocktail (Thermo Scientific), 2 mM sodium orthovanadate, 10 mM EDTA and 4 mM PMSF. Samples were lysed by sonication and incubated on ice for 30 min. Cell debris was removed by centrifugation and protein concentrations were determined using the BCA Protein Assay Kit (Pierce). The clarified lysate was diluted in LDS sample buffer with reducing agent (Life Technologies). […] Gels were run at 110 V and proteins were transferred to a PVDF membrane. Membranes were blocked in TBS blocking buffer (Li-Cor Biosciences) for 1 hr. Primary antibodies (Cell Signaling, Sant Cruz Biotechnology) were added (1:1,000 dilution) in blocking buffer with 0.1% Tween-20 and 1:20,000 dilution of β-actin antibody and incubated for 14 hr at 4° C. Blots were washed in TBS-T. Label-conjugated goat anti-rabbit secondary antibody (IRdye® 800CW; Li-Cor Biosciences) was added in blocking buffer with 0.1% Tween-20 and 0.02% SDS and incubated for 1 hr. After washing in TBS-T followed by TBS, membranes were scanned on an Odyssey imaging system (Li-Cor Biosciences). Bands were quantitated using ImageJ.
# MV4-11 cells = assay: Induction of apoptosis (Annexin V / propidium iodide flow cytometry); format: cell-based, human
# Protocol: Cells were seeded in a six-well tissue culture plate in 3 mL complete growth medium (3×10^5 cells/well) and allowed to equilibrate for 1 hr at 37° C. in a humidified incubator with 5% CO2. DMSO (control), test compound, or doxorubicin was added to the wells (0.1% final DMSO concentration). Cells were returned to the incubator for 24 hrs. On the day of analysis 1×10^5 cells were labeled according to manufacturer's instructions and analyzed by flow cytometry (BD FACSCaalibur™, GH) to determine the percent of apoptotic cells (annexin V positive, AV+) and/or apoptotic dead cells (AV+ and propidium iodide positive (PI+)).
# P-RSK2 [3] = assay: Western blot, RSK2 phosphorylation in C1498 cells; format: cell-based, murine; conditions: C1498, 30-100 nM range
# Protocol: as §1, with “After heating to 70° C. samples were cooled and loaded onto 4-12% Bis-Tris gels (Life Technologies) at 50 μg/well.” left out
# P-PDK1 [4] = assay: Western blot, PDK1 phosphorylation in A20 cells; format: cell-based, murine
# Protocol: as §1, with “After heating to 70° C. samples were cooled and loaded onto 4-12% Bis-Tris gels (Life Technologies) at 50 μg/well.” left out
# P-RSK2 [5] = assay: Western blot, RSK2 phosphorylation in A20 cells; format: cell-based, murine; conditions: Mus musculus; A20, 300 nM
# Protocol: as §1
# P-AKT = assay: Western blot, AKT phosphorylation in A20 cells; format: cell-based, murine
# Protocol: as §2
# P-PDK1 [6] = assay: Western blot, PDK1 phosphorylation in MV4-11 cells; format: cell-based, human
# Protocol: as §2
# [7] = Homo sapiens, MV4-11, FIG. 6C, 30 nM, 4 hrs
Structure (SMILES),inhibition at 0.1 µM (pPDK1),inhibition at 0.1 µM (pRSK2),fold more inhibition of PDK1 phosphorylation after 24 hours than 4 hours [1],"fold more potent than GSK-2334470 in inhibiting phosphorylation of both PDK1 and RSK2 ([1]; MV4-11, FIG. 6)",inhibition at 0.03 µM (P-RSK2 [2]; [7]),"inhibition at 0.1 µM (P-RSK2 [2]; Homo sapiens, MV4-11, 100 nM)","inhibition of RSK2 phosphorylation (P-RSK2 [2]; MV4-11, 30 nM, various times)",apoptosis at 100 nM (MV4-11 cells; 100 nM),apoptosis after 24 hours (MV4-11 cells; 24 hours),P-RSK2 inhibition (P-RSK2 [3]),P-PDK inhibition plateau (P-PDK1 [4]),inhibition at 0.3 µM (P-RSK2 [5]),P-AKT levels (P-AKT),inhibition at 0.03 µM (P-PDK1 [6]; [7]),"inhibition at 0.1 µM (P-PDK1 [6]; Homo sapiens, MV4-11, 100 nM)","fold decrease in PDK1 phosphorylation between 4 hr and 24 hr exposure (P-PDK1 [6]; MV4-11, 30 nM)"
"C[C@H](NC(=O)c1nc(C#N)cnc1NCc1ccc(-c2cnc3[nH]nc(N)c3n2)cc1)c1ccc(F)c(F)c1 [Compound 1, 3-[4-(3-Amino-1H-pyrazolo[3,4-b]pyrazin-5-yl)-benzylamino]-6-cyano-pyrazine-2-carboxylic acid [1-(3,4-difluoro-phenyl)-ethyl]-amide]",> 80%,> 80%,,,,,,,,,,,,,,
"CNc1n[nH]c2ncc(-c3ccc(CNc4ncc(C#N)nc4C(=O)N[C@@H](C)c4ccc(F)c(F)c4)cc3)cc12 [Compound 2, 6-Cyano-3-[4-(3-methylamino-1H-pyrazolo[3,4-b]pyridin-5-yl)-benzylamino]-pyrazine-2-carboxylic acid [1-(3,4-difluoro-phenyl)-ethyl]-amide]",,,2-5 fold,10 fold,90%,> 95%,potent and time-independent,induces apoptosis,substantial apoptosis,> 90%,70%,> 90%,sensitive,40%,90%,5 fold
